Converted amounts (≈) assume the structure as drawn. Numbered stars: 1 amine (or outer) side, 2 acyl side, 3 side chain; on linkers, the order of the positions; unused ones are H or OH. Bridge positions count the residues as written; N and C are the ends. Square brackets hold non-standard residues; d marks the D form. Peptide text beside a SMILES is read from it. * marks the point of attachment. hTyr(3S-OH,4S-OH,3'-OSO3H) = N[C@H](C(=O)O)[C@H](O)[C@@H](O)c1ccc(O)c(OS(=O)(=O)O)c1; pTerphenylCO(4''-OnC5H11) = CCCCCOc1ccc(-c2ccc(-c3ccc(C(=O)*)cc3)cc2)cc1; Orn(4R-OH,5R-OH) = O=C([C@H](C[C@@H](O)[C@@H](O)N[*:3])N[*:1])[*:2]; hTyr(3S-OH,4S-OH) = N[C@H](C(=O)O)[C@H](O)[C@@H](O)c1ccc(O)cc1; Pro(3S-OH,4S-Me) = C[C@H]1CN[C@H](C(=O)O)[C@H]1O; X1 = CCCCCOc1ccc(-c2cc(-c3ccc(C(=O)*)cc3)no2)cc1; Gln(3R-OH) = NC(=O)C[C@@H](O)[C@H](N)C(=O)O; Hyp = O=C(O)[C@@H]1C[C@@H](O)CN1
Columns and labels:
C. glabrata isolates = experiment: Susceptibility profiles of C. glabrata clinical isolates; format: cell-based
From the text: 168 C. glabrata isolates are collected from blood or other sterile sites in our repository. 11 clinical isolates are selected that display various susceptibility profiles against anidulafungin, caspofungin, and micafungin, and/or harbor mutant or wild-type FKS genes (Table 1). Additionally, 29 isolates are picked that are susceptible to all three echinocandins and harbor wild-type FKS genes. These 40 clinical isolates undergo CD101 susceptibility testing according to the CLSI broth microdilution reference methods. Stock solutions are prepared in DMSO. […] MICs are determined visually after 24-h of incubation. C. krusei ATCC 6258 and C. parapsilosis ATCC 22019 are included for quality controls.

[1] = MALDI-MSI drug distribution in infected liver, mouse model of intra-abdominal candidiasis; format: in vivo; settings: single dose 5 mg/kg
Method: (§1) A mouse model of IAC was used for this study. Female six to eight week old CD1 mice (Charles River Laboratories) weighing 18-22 g were infected intraperitoneally (IP) with 1×10^7 CFU of C. albicans SC5314 mixed with sterile stool matrix as previously described. […] Mice were sacrificed just before antifungal treatment (n=1), and at 1, 3, 6, 24, and 48 hours post-dose (three mice per group per time point). Livers and kidneys were explored for abscesses >1 mm in diameter, dissected, placed on a cryohistology tray, and snap-frozen in liquid nitrogen and stored at −80° C. for tissue sectioning for MALDI imaging.
(§2) In a further experiment, a low dose of CD101 at 5 mg/kg was administered and micafungin was given at the same dose. Liver and kidney samples were collected at 6 hours and 24 hours post-dose for both MALDI imaging and absolute drug quantification.
(§3) In another separate experiment that aimed at comparing therapeutic level of single dose CD101 and multiple doses of micafungin, a single dose of CD101 at 20 mg/kg was given at day three post-inoculation, and once daily treatment of micafungin at 5 mg/kg starting from day three post-inoculation and a total of three doses of micafungin was administered. Livers and kidneys were collected at 48 hours and 72 hours post first dose of each drug.
Tissues were sectioned at 12 μm thickness using a Leica CM1850 cryostat (Buffalo Grove, Ill.) and mounted onto stainless steel slides (for MALDI-MSI analysis) or frosted glass microscope slides (for H&E staining). Tissue sections were stored at −80° C. until analysis. Prior to MALDI-MSI analysis, tissue sections were thawed and applied with ionization matrix. For CD101, 2,5-dihydroxybenzoic acid (DHB) (20 mg/ml in 50% methanol) containing 267 fmol/μl CD101-D9 (Cidara Therapeutics, Inc) was applied to the surface using a HTX TM sprayer (Chapel Hill, N.C.) operating with 50 μL/min flow rate, 60° C. nozzle temperature and 5 p.s.i. Twenty-five passes over the tissue were performed. For micafungin, 1,5-diaminonaphthalene (1,5-DAN) matrix (5 mg/ml in 50% acetone) containing 5 nmol/μl ^13C6-micafungin (Alsachim, France) was coated onto tissue surface by the TM-sprayer at flow rate of 60 μl/min, 50° C. nozzle temperature and 5 p.s.i. […]
MALDI-MSI analysis was performed using a MALDI LTQ Orbitrap XL mass spectrometer (Thermo Fisher Scientific, Bremen, Germany) with a resolution of 60,000 at m/z 400, full width at half maximum. […] Standards of CD101 and micafungin were analyzed both direct from the stainless steel target plate and spiked into drug-naïve liver tissue to optimize instrument parameters. Limit of detection (LOD) for MALDI-MSI analysis of micafungin and CD101 was 500 ng/g and 1 μg/g of liver or kidney tissue respectively, calculated as described. […]

[2] = Laser-capture microdissection and LC/MS-MS drug quantification in liver lesions and surrounding tissue, mouse IAC model; format: in vivo; settings: for concentration at 24 h / concentration at 6 h: female, CD1, mouse, in vivo, 5 mg/kg; for concentration at 6 h: 6 hours post-dose
Method: as §1, §2, §3
Laser-capture microdissection. Necrotic lesion and surrounding tissue areas totaling two to […] were dissected from between three and six serial liver or kidney biopsy tissue sections using a Leica LMD6500 system (Buffalo Grove, Ill.). Lesion areas were identified optically from the brightfield image scan and by comparison to the adjacently-sectioned H&E reference tissue. Pooled dissected lesion tissues were collected into 0.25 ml standard PCR tubes and immediately transferred to the −80° C. freezer for storage.
Prior to analysis, the tubes were thawed at room temperature for 30 minutes. 50 μl of extraction solution (ACN/MeOH (1/1) with 100 ng/ml CD101-D9 and 100 ng/ml ^13C6-micafungin) was added to each tube, which were then sonicated for five min and centrifuged at 10000 RPM for five min at room temperature. 40 μl of supernatant was transferred for LC/MS-MS analysis and diluted with an additional 40 μl of MilliQ water.
Neat 1 mg/ml DMSO stocks for all compounds were serial diluted in 50/50 acetonitrile water to create standard curves and quality control spiking solutions. 3 μl of neat spiking solutions were added to 2 μl of lesion homogenate and extraction was performed by adding 50 μl of extraction solution (ACN/MeOH (1/1) with 100 ng/ml CD101-D9 and 100 ng/ml ^13C6-micafungin). Extracts were vortexed for five minutes and centrifuged at 10000 RPM for five min. A 40 μl of supernatant was transferred for LC/MS-MS analysis and diluted with an additional 40 μl of MilliQ water. Previously optimized LC/MS-MS parameters were used for analysis (see LC/MS-MS section).
LC-MS analysis was performed on a Q Exactive high resolution mass spectrometer (Thermo Fisher Scientific, Waltham, Mass.) coupled to a Thermo Scientific Dionex UltiMate 3000 binary system. Chromatography was performed with a Kinetex C18 column (2.1×50 mm; particle size 1.7 μm, Phenomenex, Torrance, Calif.) using a reverse phase gradient elution, ACN:H2O (60:40) and 10 mM ammonium acetate for mobile phase A and IPA:ACN:MeOH (80:10:10) and 10 mM ammonium acetate for mobile phase B. A flow rate of 300 μl/min was used, with a gradient consisting of 20% B held for 0.5 min, followed by linear increase to 95% in 3.5 min, held for 2.2 min and return to the initial 20% B in 0.3 min. The column was equilibrated for 1.5 min before the next injection, and the temperature of column and sample tray were held at 50 and 4° C., respectively. The column retention time for CD101 and micafungin was 3.32 min and 3.2 min respectively.
Key MS parameters were as follow: the spray voltage, 3.5 kV; capillary temperature, 320° C.; HESI probe temperature, 400° C.; S-lens RF level, 50. […]

[3] = Serum drug levels after single dose in mice; format: in vivo; settings: mouse, single dose 5 mg/kg, read-out: serum drug level
C. albicans = experiment: Minimum inhibitory concentration (MIC), IAC study strain; format: cell-based; settings: Candida albicans
Method: As used herein, the term “minimum inhibitory concentration” or “MIC” refers to the concentration of an antifungal agent at which 50% to 100% growth inhibition of a fungus is achieved relative to a positive growth control. The method of establishing MIC will vary depending on the specific compound tested. For example, for echinocandins (e.g., CD101), MIC endpoints are determined after 24 hours incubation and correspond with the lowest drug concentration to produce a prominent decrease in turbidity (e.g., an approximately 50% reduction in growth relative to the drug-free growth control). For additional methods of determining the MIC of antifungal agents, see CLSI—Reference method for broth dilution antifungal susceptibility testing of yeasts; Approved-standard—Third Edition. CLSI document M27-A3. Wayne, Pa.: Clinical and Laboratory Standards Institute, 2008.

C. glabrata BG2 = experiment: MIC against C. glabrata BG2; format: cell-based; settings: Nakaseomyces glabratus; C. glabrata BG2, wild-type FKS genes
[4] = tested on: wildtype strains of C. albicans; settings: cited from earlier work
[5] = tested on: wildtype strains of C. glabrata; settings: cited from earlier work

Row | SMILES | susceptibility profile, value (C. glabrata isolates; Isolate 1, FKS R653I) | susceptibility profile, value (C. glabrata isolates; Isolate 2, FKS Wild-type) | susceptibility profile, value (C. glabrata isolates; Isolate 3, FKS F659L) | susceptibility profile, value (C. glabrata isolates; Isolate 4, FKS F659S) | susceptibility profile, value (C. glabrata isolates; Isolate 5, FKS R636S) | susceptibility profile, value (C. glabrata isolates; Isolate 6, FKS F659del) | susceptibility profile, value (C. glabrata isolates; Isolate 7, FKS S663P) | susceptibility profile, value (C. glabrata isolates; Isolate 8, FKS S663P) | susceptibility profile, value (C. glabrata isolates; Isolate 9, FKS D632Y) | susceptibility profile, value (C. glabrata isolates; Isolate 10, FKS D632Y) | susceptibility profile, value (C. glabrata isolates; Isolate 11, FKS F659del) | other results
1 | CC[C@H](C)C[C@H](C)CCCCCCCCC(=O)N[C@H]1C[C@@H](O)[C@@H](NCCN)NC(=O)[C@@H]2[C@@H](O)CCN2C(=O)[C@H]([C@H](O)CCN)NC(=O)[C@H]([C@H](O)[C@@H](O)c2ccc(O)cc2)NC(=O)[C@@H]2C[C@@H](O)CN2C(=O)[C@H]([C@@H](C)O)NC1=O [Caspofungin, caspofungin] | 0.125 | 0.25 | 1 | 1 | 4 | 8 | 8 | 0.5 | 2 | 2 | 16 | 
2 | CCCCCOc1ccc(-c2cc(-c3ccc(C(=O)N[C@H]4C[C@@H](O)[C@@H](O)NC(=O)[C@@H]5[C@@H](O)[C@@H](C)CN5C(=O)[C@H]([C@H](O)CC(N)=O)NC(=O)[C@H]([C@H](O)[C@@H](O)c5ccc(O)c(OS(=O)(=O)O)c5)NC(=O)[C@@H]5C[C@@H](O)CN5C(=O)[C@H]([C@@H](C)O)NC4=O)cc3)no2)cc1 [micafungin] (X1-[Orn(4R-OH,5R-OH)]T[Hyp][hTyr(3S-OH,4S-OH,3'-OSO3H)][Gln(3R-OH)][Pro(3S-OH,4S-Me)]; lactam 1-C) | 0.015 | 0.03 | 0.06 | 0.06 | 0.12 | 4 | 8 | 0.5 | 0.25 | 0.25 | 4 | time of peak drug intensity in liver tissues (MALDI-MSI) [1]: 1 h; drug signal in liver at 48 hours (MALDI-MSI) ([1]; no further dosing): no drug signals were detected; drug exposure within necrotic center of lesion (MALDI-MSI) ([1]; 24 hours): no detectable drug exposure; time at which drug signal first detectable in lesions (at lesion edge, MALDI-MSI) ([1]; liver): 6 h; drug level in liver lesions ([2]; 5 mg/kg once daily, 24 hours post third dose (steady-state)): under 5 μg/ml; concentration at 24 h ([2]; 5 mg/kg once daily, 24 hours post second dose, read-out: drug level in liver lesions): 3500 ng/mL; concentration at 24 h ([2]; 5 mg/kg once daily, 24 hours post third dose (steady-state), read-out: drug level in liver lesions): 4900 ng/mL; concentration at 24 h ([2]; 5 mg/kg once daily, steady-state after three doses, read-out: drug level in surrounding non-lesion liver tissues): 500 ng/mL; concentration at 6 h ([2]; ip, single IP dose 5 mg/kg, read-out: drug concentration in liver lesions): 4900 ng/mL; concentration at 6 h ([2]; ip, single IP dose 5 mg/kg, read-out: drug concentration in uninvolved surrounding liver tissue): 6500 ng/mL; concentration at 24 h ([2]; ip, single IP dose 5 mg/kg, 24 hours post-dose, read-out: drug concentration in liver lesions): 3400 ng/mL; concentration at 24 h ([2]; ip, single IP dose 5 mg/kg, 24 hours post-dose, read-out: drug concentration in uninvolved surrounding liver tissue): 1000 ng/mL; concentration at 6 h ([3]; 6 hours): 7000 to 10000 ng/mL; concentration at 24 h ([3]; 24 hours): ~2000 ng/mL; MIC (C. albicans): 0.03 µg/mL (≈ 0.0236 µM); MIC (C. glabrata BG2): 0.06 µg/mL (≈ 0.0472 µM); mutant prevention concentration (MPC) [4]: 16 µg/mL; mutant prevention concentration (MPC) [5]: 16 µg/mL
3 | CCCCCOc1ccc(-c2ccc(-c3ccc(C(=O)N[C@H]4C[C@@H](O)[C@@H](O)NC(=O)[C@@H]5[C@@H](O)[C@@H](C)CN5C(=O)[C@H]([C@@H](C)O)NC(=O)[C@H]([C@H](O)[C@@H](O)c5ccc(O)cc5)NC(=O)[C@@H]5C[C@@H](O)CN5C(=O)[C@H]([C@@H](C)O)NC4=O)cc3)cc2)cc1 [Anidulafungin, anidulafungin] ({pTerphenylCO(4''-OnC5H11)}-[Orn(4R-OH,5R-OH)]T[Hyp][hTyr(3S-OH,4S-OH)]T[Pro(3S-OH,4S-Me)]; lactam 1-C) | 0.015 | 0.015 | 0.06 | 0.5 | 0.5 | 2 | 2 | 0.5 | 0.5 | 1 | 2 | 

Reference: patent publication US20200164023A1, “METHODS FOR PREVENTING AND TREATING INTRA-ABDOMINAL CANDIDIASIS” (Cidara Therapeutics, Inc., priority 2017, published 2020)
